Experimental data from US9340497B2, “Method for the preparation of (3S,3S′) 4,4′-disulfanediylbis (3-aminobutane 1-sulfonic acid)” (QUANTUM GENOMICS, priority 2010, dated 2016).

Columns and labels:
[1] = Thermal stability of the product of each step (Table 1); format: physicochemical; conditions: product of step (e) of the preferred method; cell text split over r17-r19: No decomposition observed
Excerpt: Table 1 provides the reaction enthalpies, the purities (determined by HPLC and expressed as molar percentages) and the stabilities of the products of each step for this preferred method.

[2] = as described by Bodineau et al. in Hypertension 2008 51, 1318-1325; cited from earlier work
[3] = Stability of solid forms (neat, hydrates) under ambient conditions; format: physicochemical; conditions: ambient conditions: 15-25° C., atmospheric pressure, relative humidity above 50%; hydrate mixtures evolve to the trihydrate within a few days
Procedure: Any mixture of hydrates of compound I will evolve within a few days towards the trihydrate form in ambient conditions. Ambient conditions as used herein refer to a temperature between 15° C. and 25° C., at atmospheric pressure, and a relative humidity rate above 50%.

Row | Stability: decomposition [1] | melting point [°C] | Relative stability of solid form [3] | SMILES | Anti-hypertensor efficacy [2]
1 | No | 78 |  | N[C@@H](CCS(=O)(=O)O)CSSC[C@@H](N)CCS(=O)(=O)O [Compound I, (3S,3S′) 4,4′-disulfanediylbis(3-aminobutane 1-sulfonic acid)] | efficient anti-hypertensor agent
2 |  |  | most stable form | N[C@@H](CCS(=O)(=O)O)CSSC[C@@H](N)CCS(=O)(=O)O.O.O.O [compound I, (3H2O)] | 
